Where “and” joins values, the source holds several entries; their conditions need not be identical. Equal values may be shown once.
Test system: BDF1 mice, Adenocarcinoma 755 s.c., tumor weight T/C
Assay: NCI In Vivo Anticancer Drug Screen. Data for tumor model Adenocarcinoma 755 (subcutaneous) in B6D2F1 (BDF1) mice
Conditions: endpoint: mean tumor weight, higher = larger tumour
In short: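 In vivo antitumor screen on a transplantable tumor line. Result equals the measure in compound-treated animals divided by the same measure in vehicle controls.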

[1] = dose: 25.0 mg/kg/injection, schedule: Q01DX011 (ip), vehicle: methylcellulose (MC)
[2] = dose: 50.0 mg/kg/injection, schedule: Q01DX011 (ip), vehicle: methylcellulose (MC)
[3] = dose: 100.0 mg/kg/injection, schedule: Q01DX011 (ip), vehicle: methylcellulose (MC)
[4] = dose: 200.0 mg/kg/injection, schedule: Q01DX011 (ip), vehicle: methylcellulose (MC)
[5] = dose: 10.0 mg/kg/injection, schedule: Q01DX011 (ip), vehicle: other
[6] = dose: 20.0 mg/kg/injection, schedule: Q01DX011 (ip), vehicle: other
[7] = dose: 30.0 mg/kg/injection, schedule: Q01DX011 (ip), vehicle: carboxymethylcellulose (CMC)
[8] = dose: 120.0 mg/kg/injection, schedule: Q01DX011 (ip), vehicle: carboxymethylcellulose (CMC)
[9] = dose: 225.0 mg/kg/injection, schedule: Q01DX011 (ip), vehicle: methylcellulose (MC)
[10] = dose: 25.0 mg/kg/injection, schedule: Q01DX011 (ip), vehicle: carboxymethylcellulose (CMC)
[11] = dose: 50.0 mg/kg/injection, schedule: Q01DX011 (ip), vehicle: carboxymethylcellulose (CMC)
[12] = dose: 60.0 mg/kg/injection, schedule: Q01DX011 (ip), vehicle: carboxymethylcellulose (CMC)
[13] = dose: 12.5 mg/kg/injection, schedule: Q01DX011 (ip), vehicle: methylcellulose (MC)
[14] = dose: 500.0 mg/kg/injection, schedule: Q01DX011 (ip), vehicle: methylcellulose (MC)

CC(C)Cn1cnc2c(SCCCc3ccccc3)nc(N)nc21
T/C [1]: 72 % of control | T/C [2]: 39 % of control | T/C [3]: 10 % of control | T/C [4]: 8 % of control

COC1C(OC(=O)/C=C/C=C/C=C/C=C\C(=O)O)CCC2(CO2)C1C1(C)OC1CC=C(C)C (stereo not drawn)
T/C [5]: 90 % of control | T/C [6]: 98 % of control | T/C (dose: 40.0 mg/kg/injection, schedule: Q01DX011 (ip), vehicle: other): 64 % of control | T/C (dose: 80.0 mg/kg/injection, schedule: Q01DX011 (ip), vehicle: other): 82 % of control | T/C (dose: 160.0 mg/kg/injection, schedule: Q01DX011 (ip), vehicle: other): 74 % of control

Ic1ncnc2c1ncn2C1CCCCO1 (stereo not drawn)
T/C (dose: 5.0 mg/kg/injection, schedule: Q01DX011 (ip), vehicle: other): 123 % of control | T/C [5]: 47 % of control | T/C (dose: 15.0 mg/kg/injection, schedule: Q01DX011 (ip), vehicle: other): 94 % of control | T/C [6]: 68 % of control and 70 % of control | T/C (dose: 30.0 mg/kg/injection, schedule: Q01DX011 (ip), vehicle: other): 100 % of control and 76 % of control | T/C (dose: 31.0 mg/kg/injection, schedule: Q01DX011 (ip), vehicle: other): 14 % of control | T/C (dose: 62.0 mg/kg/injection, schedule: Q01DX011 (ip), vehicle: other): 14 % of control

Nc1nc2c(ccn2Cc2ccccc2)c(=O)[nH]1
T/C [7]: 92 % of control | T/C [8]: 106 % of control

Ic1ncnc2c1ncn2C1CCCS1 (stereo not drawn)
T/C (dose: 75.0 mg/kg/injection, schedule: Q01DX011 (ip), vehicle: methylcellulose (MC)): 150 % of control | T/C [9]: 95 % of control

Cn1c(N)nc2nc[nH]c2c1=S
T/C (dose: 4.0 mg/kg/injection, schedule: Q01DX011 (oral), vehicle: carboxymethylcellulose (CMC)): 114 % of control | T/C (dose: 4.0 mg/kg/injection, schedule: Q01DX011 (oral), vehicle: saline): 91 % of control | T/C (dose: 5.0 mg/kg/injection, schedule: Q01DX011 (ip), vehicle: methylcellulose (MC)): 4 % of control | T/C (dose: 6.0 mg/kg/injection, schedule: Q01DX011 (ip), vehicle: methylcellulose (MC)): 5 % of control | T/C (dose: 7.0 mg/kg/injection, schedule: Q01DX011 (ip), vehicle: methylcellulose (MC)): 4 % of control | T/C (dose: 8.0 mg/kg/injection, schedule: Q01DX011 (oral), vehicle: carboxymethylcellulose (CMC)): 112 % of control | T/C (dose: 8.0 mg/kg/injection, schedule: Q01DX011 (oral), vehicle: saline): 92 % of control | T/C (dose: 16.0 mg/kg/injection, schedule: Q01DX011 (oral), vehicle: carboxymethylcellulose (CMC)): 119 % of control | T/C (dose: 16.0 mg/kg/injection, schedule: Q01DX011 (oral), vehicle: saline): 80 % of control | T/C (dose: 32.0 mg/kg/injection, schedule: Q01DX011 (oral), vehicle: carboxymethylcellulose (CMC)): 203 % of control | T/C (dose: 32.0 mg/kg/injection, schedule: Q01DX011 (oral), vehicle: saline): 86 % of control | T/C (dose: 64.0 mg/kg/injection, schedule: Q01DX011 (oral), vehicle: carboxymethylcellulose (CMC)): 151 % of control | T/C (dose: 64.0 mg/kg/injection, schedule: Q01DX011 (oral), vehicle: saline): 120 % of control | T/C (dose: 500.0 mg/kg/injection, schedule: Q01DX011 (oral), vehicle: carboxymethylcellulose (CMC)): 85 % of control | T/C (dose: 750.0 mg/kg/injection, schedule: Q01DX011 (oral), vehicle: carboxymethylcellulose (CMC)): 90 % of control | T/C (dose: 310.0 micrograms/kg/injection, schedule: Q01DX011 (ip), vehicle: methylcellulose (MC)): 32 % of control | T/C (dose: 625.0 micrograms/kg/injection, schedule: Q01DX011 (ip), vehicle: methylcellulose (MC)): 64 % of control | T/C (dose: 1000.0 micrograms/kg/injection, schedule: Q01DX011 (ip), vehicle: methylcellulose (MC)): 3 % of control | T/C (dose: 1250.0 micrograms/kg/injection, schedule: Q01DX011 (ip), vehicle: methylcellulose (MC)): 18 % of control | T/C (dose: 2000.0 micrograms/kg/injection, schedule: Q01DX011 (ip), vehicle: methylcellulose (MC)): 3 % of control | T/C (dose: 2500.0 micrograms/kg/injection, schedule: Q01DX011 (ip), vehicle: methylcellulose (MC)): 4 % of control | T/C (dose: 5000.0 micrograms/kg/injection, schedule: Q01DX011 (ip), vehicle: methylcellulose (MC)): 4 % of control | T/C (dose: 7500.0 micrograms/kg/injection, schedule: Q01DX011 (ip), vehicle: methylcellulose (MC)): 2 % of control

O=C([O][Hg][CH2]C1CC(O)CC([CH2][Hg][O]C(=O)c2ccccc2)O1)c1ccccc1 (stereo not drawn)
T/C [10]: 83 % of control | T/C [11]: 33 % of control

CSc1nc(Cl)cc2nc(Cl)cn12
T/C [7]: 110 % of control | T/C [12]: 111 % of control

CCCCn1cnc2c(SCc3cccc(F)c3)nc(N)nc21
T/C (dose: 3.1 mg/kg/injection, schedule: Q01DX011 (ip), vehicle: methylcellulose (MC)): 50 % of control | T/C (dose: 6.25 mg/kg/injection, schedule: Q01DX011 (ip), vehicle: methylcellulose (MC)): 61 % of control | T/C [13]: 23 % of control | T/C [1]: 1 % of control and 8 % of control

COc1ccc(-n2cnc3c(N)nc(N)nc32)cc1
T/C [1]: 68 % of control | T/C [2]: 62 % of control | T/C [3]: 50 % of control | T/C [4]: 57 % of control

Clc1ccc(CNc2ncnc3c2cnn3C2CCCCO2)cc1Cl (stereo not drawn)
T/C [13]: 83 % of control | T/C [1]: 105 % of control | T/C [3]: 40 % of control and 61 % of control | T/C [4]: 23 % of control

Cc1ccc(N=Nc2c(S(=O)(=O)O)cc3cc(NC(=O)Nc4ccc5c(O)c(N=Nc6ccc7cc(S(=O)(=O)O)ccc7c6)c(S(=O)(=O)O)cc5c4)ccc3c2O)c(C)c1
T/C (dose: 45.0 mg/kg/injection, schedule: Q01DX011 (ip), vehicle: carboxymethylcellulose (CMC)): 81 % of control

CC1CCOS(=O)O1 (stereo not drawn)
T/C (dose: 20.0 mg/kg/injection, schedule: Q01DX011 (ip), vehicle: carboxymethylcellulose (CMC)): 76 % of control | T/C (dose: 40.0 mg/kg/injection, schedule: Q01DX011 (ip), vehicle: carboxymethylcellulose (CMC)): 18 % of control

Nc1n[nH]c(N)n1
T/C (dose: 300.0 mg/kg/injection, schedule: Q01DX011 (ip), vehicle: methylcellulose (MC)): 55 % of control | T/C (dose: 400.0 mg/kg/injection, schedule: Q01DX011 (ip), vehicle: methylcellulose (MC)): 58 % of control | T/C [14]: 44 % of control

C/C(=N\NC(=O)c1ccncc1)c1cccc(Cl)c1
T/C (dose: 7.5 mg/kg/injection, schedule: Q01DX011 (ip), vehicle: methylcellulose (MC)): 47 % of control and 50 % of control | T/C (dose: 30.0 mg/kg/injection, schedule: Q01DX011 (ip), vehicle: methylcellulose (MC)): 31 % of control

CC(=O)OCC1OC(n2cnc3c(=O)[nH]c(N)nc32)CC1OC(C)=O (stereo not drawn)
T/C [7]: 115 % of control | T/C [12]: 95 % of control | T/C [8]: 94 % of control | T/C (dose: 240.0 mg/kg/injection, schedule: Q01DX011 (ip), vehicle: carboxymethylcellulose (CMC)): 115 % of control

O=C(CCCl)N1CCc2ccccc2C1
T/C (dose: 25.0 mg/kg/injection, schedule: Q01DX011 (sc), vehicle: olive oil, sesame oil, peanut oil): 71 % of control | T/C (dose: 75.0 mg/kg/injection, schedule: Q01DX011 (sc), vehicle: olive oil, sesame oil, peanut oil): 99 % of control

NC(CS)C(=O)O (stereo not drawn) (tested in a mixture with another compound)
T/C (dose: 150.0 mg/kg/injection, schedule: Q01DX011 (ip), vehicle: methylcellulose (MC)): 42 % of control | T/C (dose: 150.0 mg/kg/injection, schedule: Q01DX011 (ip), vehicle: saline): 56 % of control and 61 % of control | T/C [9]: 31 % of control | T/C (dose: 225.0 mg/kg/injection, schedule: Q01DX011 (ip), vehicle: saline): 18 % of control | T/C (dose: 275.0 mg/kg/injection, schedule: Q01DX011 (ip), vehicle: saline): 55 % of control | T/C (dose: 350.0 mg/kg/injection, schedule: Q01DX011 (ip), vehicle: methylcellulose (MC)): 18 % of control | T/C (dose: 350.0 mg/kg/injection, schedule: Q01DX011 (ip), vehicle: saline): 35 % of control and 48 % of control | T/C [14]: 19 % of control

CC[N+](C)(C)c1ncnc2nc[nH]c12
T/C (dose: 12.0 mg/kg/injection, schedule: Q01DX011 (ip), vehicle: carboxymethylcellulose (CMC)): 88 % of control | T/C (dose: 17.0 mg/kg/injection, schedule: Q01DX011 (ip), vehicle: carboxymethylcellulose (CMC)): 80 % of control | T/C [10]: 47 % of control and 52 % of control | T/C (dose: 37.0 mg/kg/injection, schedule: Q01DX011 (ip), vehicle: carboxymethylcellulose (CMC)): 33 % of control | T/C [11]: 22 % of control | T/C (dose: 75.0 mg/kg/injection, schedule: Q01DX011 (ip), vehicle: carboxymethylcellulose (CMC)): 6 % of control | T/C (dose: 100.0 mg/kg/injection, schedule: Q01DX011 (ip), vehicle: carboxymethylcellulose (CMC)): 3 % of control
